Assay: xn = mol fraction of the nth substance listed
Conditions: Liquid, Vibrating tube method

CC(C)O [propan-2-ol] + O=C=O
Conditions	mass density [kg/m3]
308.11 K, 1814 kPa, x2 = 0.139	786.2
308.11 K, 2252 kPa, x2 = 0.139	786.8
308.11 K, 3003 kPa, x2 = 0.139	787.7
308.11 K, 3206 kPa, x2 = 0.139	787.9
308.11 K, 3427 kPa, x2 = 0.139	788.2
308.11 K, 3514 kPa, x2 = 0.2003	792.7
308.11 K, 3607 kPa, x2 = 0.139	788.4
308.11 K, 4006 kPa, x2 = 0.2003	793.4
308.11 K, 4089 kPa, x2 = 0.139	788.9
308.11 K, 4510 kPa, x2 = 0.2003	794
308.11 K, 5013 kPa, x2 = 0.139	789.9
308.11 K, 5028 kPa, x2 = 0.2003	794.7
308.11 K, 5503 kPa, x2 = 0.139	790.5
308.11 K, 5504 kPa, x2 = 0.2003	795.3
308.11 K, 6002 kPa, x2 = 0.6086	812.2
308.11 K, 6006 kPa, x2 = 0.2003	795.9
308.11 K, 6019 kPa, x2 = 0.139	791
308.11 K, 6221 kPa, x2 = 0.6086	813
308.11 K, 6400 kPa, x2 = 0.6086	813.7
308.11 K, 6517 kPa, x2 = 0.2003	796.5
308.11 K, 6518 kPa, x2 = 0.139	791.7
308.11 K, 6606 kPa, x2 = 0.6086	814.5
308.11 K, 6807 kPa, x2 = 0.6086	815.2
308.11 K, 6824 kPa, x2 = 0.7943	793.7
308.11 K, 7001 kPa, x2 = 0.7943	795.6
308.11 K, 7009 kPa, x2 = 0.139	792.2
308.11 K, 7019 kPa, x2 = 0.6086	815.9
308.11 K, 7029 kPa, x2 = 0.2003	797.2
308.11 K, 7203 kPa, x2 = 0.6086	816.7
308.11 K, 7206 kPa, x2 = 0.7943	797.4
308.11 K, 7400 kPa, x2 = 0.7943	799.2
308.11 K, 7401 kPa, x2 = 0.6086	817.4
308.11 K, 7512 kPa, x2 = 0.139	792.7
308.11 K, 7516 kPa, x2 = 0.2003	797.7
308.11 K, 7607 kPa, x2 = 0.6086	818.3
308.11 K, 7607 kPa, x2 = 0.7943	801.1
308.11 K, 7804 kPa, x2 = 0.6086	818.9
308.11 K, 7810 kPa, x2 = 0.7943	803
308.11 K, 8001 kPa, x2 = 0.2003	798.3
308.11 K, 8005 kPa, x2 = 0.6086	819.7
308.11 K, 8007 kPa, x2 = 0.7943	804.6
308.11 K, 8016 kPa, x2 = 0.139	793.3
308.11 K, 8197 kPa, x2 = 0.7943	806.2
308.11 K, 8209 kPa, x2 = 0.6086	820.4
308.11 K, 8414 kPa, x2 = 0.7943	807.8
308.11 K, 8511 kPa, x2 = 0.2003	798.9
308.11 K, 8530 kPa, x2 = 0.139	793.9
308.11 K, 8600 kPa, x2 = 0.6086	821.7
308.11 K, 8618 kPa, x2 = 0.7943	809.6
308.11 K, 8796 kPa, x2 = 0.7943	810.8
308.11 K, 8810 kPa, x2 = 0.6086	822.4
308.11 K, 8990 kPa, x2 = 0.139	794.3
308.11 K, 9000 kPa, x2 = 0.6086	823.1
308.11 K, 9017 kPa, x2 = 0.7943	812.5
308.11 K, 9019 kPa, x2 = 0.2003	799.5
308.11 K, 9101 kPa, x2 = 0.6086	823.3
308.11 K, 9200 kPa, x2 = 0.6086	823.8
308.11 K, 9203 kPa, x2 = 0.7943	813.9
308.11 K, 9400 kPa, x2 = 0.7943	815.3
308.11 K, 9498 kPa, x2 = 0.139	794.8
308.11 K, 9607 kPa, x2 = 0.7943	816.6
308.11 K, 9807 kPa, x2 = 0.7943	818
308.11 K, 9902 kPa, x2 = 0.7943	818.6
308.11 K, 10003 kPa, x2 = 0.2003	800.7
308.11 K, 10047 kPa, x2 = 0.2003	800.8
308.12 K, 4780 kPa, x2 = 0.4248	807.5
308.12 K, 5038 kPa, x2 = 0.4248	808.2
308.12 K, 5326 kPa, x2 = 0.4248	808.8
308.12 K, 5517 kPa, x2 = 0.4248	809.2
308.12 K, 6029 kPa, x2 = 0.4248	810.3
308.12 K, 6505 kPa, x2 = 0.4248	811.3
308.12 K, 6515 kPa, x2 = 0.4248	811.4
308.12 K, 6714 kPa, x2 = 0.4248	811.8
308.12 K, 7035 kPa, x2 = 0.4248	812.4
308.12 K, 7207 kPa, x2 = 0.4248	812.8
308.12 K, 7302 kPa, x2 = 0.9492	699.6
308.12 K, 7402 kPa, x2 = 0.9492	704.9
308.12 K, 7501 kPa, x2 = 0.4248	813.4
308.12 K, 7605 kPa, x2 = 0.9492	713.8
308.12 K, 7700 kPa, x2 = 0.4248	813.8
308.12 K, 7802 kPa, x2 = 0.9492	720.9
308.12 K, 8002 kPa, x2 = 0.9492	728
308.12 K, 8024 kPa, x2 = 0.4248	814.4
308.12 K, 8204 kPa, x2 = 0.9492	734.5
308.12 K, 8404 kPa, x2 = 0.9492	740.3
308.12 K, 8605 kPa, x2 = 0.9492	745.7
308.12 K, 8606 kPa, x2 = 0.4248	815.6
308.12 K, 8802 kPa, x2 = 0.4248	816
308.12 K, 8802 kPa, x2 = 0.9492	750.6
308.12 K, 9002 kPa, x2 = 0.4248	816.4
308.12 K, 9004 kPa, x2 = 0.9492	755.4
308.12 K, 9201 kPa, x2 = 0.9492	759.7
308.12 K, 9408 kPa, x2 = 0.9492	764
308.12 K, 9529 kPa, x2 = 0.4248	817.3
308.12 K, 9610 kPa, x2 = 0.9492	768
308.12 K, 9805 kPa, x2 = 0.9492	771.5
308.12 K, 9898 kPa, x2 = 0.4248	818
308.12 K, 10003 kPa, x2 = 0.9492	774.9
308.12 K, 10202 kPa, x2 = 0.9492	778
308.12 K, 10405 kPa, x2 = 0.9492	780.9
308.12 K, 10617 kPa, x2 = 0.9492	783.7
308.12 K, 10807 kPa, x2 = 0.9492	785.9
308.13 K, 7456 kPa, x2 = 0.9715	611.7
308.13 K, 7502 kPa, x2 = 0.9715	636.2
308.13 K, 7992 kPa, x2 = 0.9715	680.6
308.13 K, 8522 kPa, x2 = 0.9715	706.8
308.13 K, 8997 kPa, x2 = 0.9715	724.3
308.13 K, 9508 kPa, x2 = 0.9715	739.8
308.13 K, 10027 kPa, x2 = 0.9715	752.9
308.13 K, 10521 kPa, x2 = 0.9715	763.7
308.13 K, 11017 kPa, x2 = 0.9715	773.2
308.13 K, 11500 kPa, x2 = 0.9715	781.6
308.13 K, 12008 kPa, x2 = 0.9715	789.6
308.13 K, 12520 kPa, x2 = 0.9715	797.2
308.13 K, 13012 kPa, x2 = 0.9715	803.8
308.13 K, 13520 kPa, x2 = 0.9715	810.4
308.13 K, 14014 kPa, x2 = 0.9715	816.4
308.13 K, 14520 kPa, x2 = 0.9715	822.1
308.13 K, 15000 kPa, x2 = 0.9715	827.3
313.08 K, 7544 kPa, x2 = 0.7943	777.4
313.08 K, 7601 kPa, x2 = 0.7943	778.5
313.08 K, 7810 kPa, x2 = 0.7943	780.8
313.08 K, 8013 kPa, x2 = 0.7943	783
313.08 K, 8205 kPa, x2 = 0.7943	784.9
313.08 K, 8410 kPa, x2 = 0.7943	786.8
313.08 K, 8593 kPa, x2 = 0.7943	788.4
313.08 K, 8800 kPa, x2 = 0.7943	790.3
313.08 K, 8999 kPa, x2 = 0.7943	792.2
313.08 K, 9208 kPa, x2 = 0.7943	794
313.08 K, 9405 kPa, x2 = 0.7943	795.7
313.08 K, 9619 kPa, x2 = 0.7943	797.5
313.08 K, 9803 kPa, x2 = 0.7943	799

Source: the NIST ThermoML archive (doi:10.1021/je700321s)
